The text below walks through data of US10711006B2, “Selective Bruton's tyrosine kinase inhibitor and use thereof” (HANGZHOU HERTZ PHARMACEUTICAL CO., LTD., priority 2016, dated 2020).

Assay [1] concerns the target hERG potassium channel (Homo sapiens (Human), UniProt Q12809). Kind of assay: hERG potassium channel inhibitory activity, manual patch clamp in CHO cells. Format: cell-based. The following applies: for IC50: CHO cells stably expressing hERG, whole-cell patch clamp. In general terms: The hERG channel carries a current that helps repolarise heart muscle cells.
In assay [2] the test system is human lung cancer cell (A549). Nature of the assay: In-vitro tumor cell proliferation inhibition (CCK-8), A549. The following applies: A549, 72 h, read-out: Tumor cell proliferation inhibitory activity (IC50, μM) A549.
Description: The in-vitro antitumor activity assay was carried out on the synthesized compound by using different solid tumors and leukemia cell lines:
Cell lines: human lung cancer cell (A549), human mantle cell lymphoma (MINO), diffuse giant B-cell lymphoma (OCI-LY10), and human diffuse large B lymphoma (TMD-8).
Preparation method of the drug: the drug was dissolved in DMSO to make a 10 mM stock solution, and then the stock solution was diluted in a certain ratio to obtain 5 different concentrations (test concentration 100×). In-vitro culture of tumor cells:
The tumor cells A549, MINO, OCI-LY10, and TMD-8 were seeded in a 96-well plate at 4000 cells/200 μL/well and then incubated overnight at 37° C. in a 5% CO2 cell culture incubator. 2 μL of the compound was added to each well to final concentrations of 50 μM, 10 μM, 2 μM, 0.4 μM, and 0.08 μM and then incubated for 72 hours at 37° C. in a 5% CO2 cell incubator, with DMSO (2%) as a control group. […] Wells loaded with the corresponding amount of cell culture fluid the and CCK-8 solution but no cells were considered as blank controls. The absorbance (OD value) was measured at 450 nm using a microplate reader, and the obtained data was used to calculate IC50.
For assay [3], the system named is diffuse giant B-cell lymphoma (OCI-LY10). Kind of assay: In-vitro tumor cell proliferation inhibition (CCK-8), OCI-LY10. The following applies: Homo sapiens, OCI-Ly10, 72 h, read-out: Tumor cell proliferation inhibitory activity (IC50, nM) OCI-LY10.
The target in assay [4] is FLT3 (Homo sapiens (Human), UniProt P36888). Nature of the assay: Kinase selectivity experiment, FLT3. Format: biochemical. Conditions: read-out: Inhibitory activity against FLT3 (IC50). The procedure:
(§1) A 1× kinase base buffer and a reaction stop buffer for respective kinases in the experiment were prepared as required.
(§2) Preparation of Compounds to be Tested:
(§3) 2) diluting each compound at a 5-fold concentration gradient in a 96-well plate to 6 to 7 concentrations and ensuring that the drug volume in each well was 10 μl; and at the same time adding 100 μl of DMSO to prepare a blank control group and also preparing a negative control group without the enzyme substrate; and
(§4) 3) preparing another 96-well plate, adding 10 μl of each of the above compounds to 90 μl of the 1× kinase base buffer and mixing for 10 minutes to be uniform.
(§5) Preparation of the Plate to be Tested:
(§6) 1) 5 μl of the mixed solution prepared as above in the 96-well plate was taken and transferred to a 384-well plate, with two replicate wells for each compound.
(§7) 1) Preparing a 2.5× kinase solution and adding a corresponding 1× kinase base buffer;
(§8) 2) preparing a 2.5× polypeptide solution and adding FAM-labeled polypeptide and ATP in the 1× kinase base buffer; and
(§9) 3) adding 10 μl of 2.5× kinase solution to a 384-well plate to be tested, placing in a room-temperature environment for 10 minutes, and then adding 10 μl of the 2.5× polypeptide solution, reacting at 28° C. for 1 hour, and then adding 25 μl of a reaction stop buffer.
(§10) The Caliper program reads the plate and uses the data to obtain the IC50 values of the corresponding compounds against kinases.

In assay [5] the target is CSK (Homo sapiens (Human), UniProt P41240). Nature of the assay: Kinase selectivity experiment, CSK. Format: biochemical. Conditions: read-out: Inhibitory activity against CSK (IC50). As to the method:
as §1, §2, §3, §4, §5, §6, §7, §8, §9, §10

A value given as a limit tells only on which side of the number the result lay.

hERG potassium channel, sequence (Q12809 whole entry): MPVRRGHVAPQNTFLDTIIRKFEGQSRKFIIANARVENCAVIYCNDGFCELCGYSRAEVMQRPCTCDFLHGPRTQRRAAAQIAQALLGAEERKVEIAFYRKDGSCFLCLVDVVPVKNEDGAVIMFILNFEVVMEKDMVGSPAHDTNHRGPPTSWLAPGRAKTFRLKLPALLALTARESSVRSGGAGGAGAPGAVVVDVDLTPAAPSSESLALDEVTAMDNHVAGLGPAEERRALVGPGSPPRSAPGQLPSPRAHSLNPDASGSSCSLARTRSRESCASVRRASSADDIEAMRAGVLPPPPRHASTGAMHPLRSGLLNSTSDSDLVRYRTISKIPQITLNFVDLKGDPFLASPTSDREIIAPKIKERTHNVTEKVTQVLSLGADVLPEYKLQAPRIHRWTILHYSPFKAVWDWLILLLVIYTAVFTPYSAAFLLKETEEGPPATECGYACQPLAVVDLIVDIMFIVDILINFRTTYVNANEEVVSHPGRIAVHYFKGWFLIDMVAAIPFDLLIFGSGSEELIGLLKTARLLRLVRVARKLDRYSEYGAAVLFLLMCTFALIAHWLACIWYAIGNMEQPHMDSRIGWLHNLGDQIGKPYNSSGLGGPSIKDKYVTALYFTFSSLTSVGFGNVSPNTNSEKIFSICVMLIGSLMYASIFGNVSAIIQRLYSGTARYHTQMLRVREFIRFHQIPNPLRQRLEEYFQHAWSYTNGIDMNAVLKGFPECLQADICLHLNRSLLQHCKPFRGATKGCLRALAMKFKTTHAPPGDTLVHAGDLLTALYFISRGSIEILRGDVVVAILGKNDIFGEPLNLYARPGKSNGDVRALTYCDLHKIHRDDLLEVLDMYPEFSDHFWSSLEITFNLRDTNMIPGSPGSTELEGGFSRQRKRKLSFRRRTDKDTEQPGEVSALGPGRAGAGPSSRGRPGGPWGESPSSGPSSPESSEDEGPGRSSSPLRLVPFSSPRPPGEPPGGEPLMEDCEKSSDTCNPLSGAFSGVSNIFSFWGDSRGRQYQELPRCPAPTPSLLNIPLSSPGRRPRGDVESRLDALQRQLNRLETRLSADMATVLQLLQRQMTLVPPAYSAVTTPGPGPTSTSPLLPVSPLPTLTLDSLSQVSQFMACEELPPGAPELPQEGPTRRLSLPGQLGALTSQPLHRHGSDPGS
FLT3, sequence (P36888 27-993, species assumed): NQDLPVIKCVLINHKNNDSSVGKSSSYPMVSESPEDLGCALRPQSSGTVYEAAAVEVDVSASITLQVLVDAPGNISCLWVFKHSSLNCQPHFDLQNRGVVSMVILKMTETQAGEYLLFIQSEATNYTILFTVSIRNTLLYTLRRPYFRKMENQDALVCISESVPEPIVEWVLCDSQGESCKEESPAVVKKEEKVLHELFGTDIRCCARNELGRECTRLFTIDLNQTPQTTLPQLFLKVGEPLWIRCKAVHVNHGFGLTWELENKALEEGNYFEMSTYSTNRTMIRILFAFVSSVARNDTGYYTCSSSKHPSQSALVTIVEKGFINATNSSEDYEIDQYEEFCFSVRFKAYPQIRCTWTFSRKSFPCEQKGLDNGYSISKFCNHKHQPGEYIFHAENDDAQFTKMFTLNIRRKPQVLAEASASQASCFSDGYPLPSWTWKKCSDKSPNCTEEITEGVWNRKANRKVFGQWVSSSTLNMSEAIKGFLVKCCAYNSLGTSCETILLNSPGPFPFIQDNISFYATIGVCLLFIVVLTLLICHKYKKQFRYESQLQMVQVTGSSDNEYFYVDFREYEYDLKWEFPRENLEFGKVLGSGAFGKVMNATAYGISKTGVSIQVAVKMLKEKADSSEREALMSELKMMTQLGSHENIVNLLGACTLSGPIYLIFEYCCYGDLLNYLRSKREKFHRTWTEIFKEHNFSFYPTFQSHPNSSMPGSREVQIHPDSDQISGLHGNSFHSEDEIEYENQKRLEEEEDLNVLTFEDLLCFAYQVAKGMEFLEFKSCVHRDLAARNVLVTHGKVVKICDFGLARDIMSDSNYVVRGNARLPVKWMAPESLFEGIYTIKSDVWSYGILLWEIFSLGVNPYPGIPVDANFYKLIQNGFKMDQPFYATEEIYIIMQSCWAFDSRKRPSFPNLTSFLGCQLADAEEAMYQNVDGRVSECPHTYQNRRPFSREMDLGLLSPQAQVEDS
CSK, sequence (P41240 whole entry, species assumed): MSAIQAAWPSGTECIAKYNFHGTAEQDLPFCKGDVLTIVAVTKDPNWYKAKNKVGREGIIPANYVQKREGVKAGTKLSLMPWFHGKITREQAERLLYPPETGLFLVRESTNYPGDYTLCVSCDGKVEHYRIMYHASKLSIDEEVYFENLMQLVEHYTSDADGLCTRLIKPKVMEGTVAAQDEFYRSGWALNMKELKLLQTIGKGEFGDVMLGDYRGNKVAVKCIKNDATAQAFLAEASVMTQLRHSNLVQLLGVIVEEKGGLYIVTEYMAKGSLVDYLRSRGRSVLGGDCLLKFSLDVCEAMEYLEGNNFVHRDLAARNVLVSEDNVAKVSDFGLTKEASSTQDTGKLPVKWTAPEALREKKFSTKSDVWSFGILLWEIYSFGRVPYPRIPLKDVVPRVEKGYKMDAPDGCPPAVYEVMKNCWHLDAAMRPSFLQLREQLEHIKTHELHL

For the molecule `C=CC(=O)N1CCC[C@@H](n2nc(-c3ccc(Oc4ccccc4)nc3)c3c(N)ncnc32)C1` [Compound 15a, (R)-1-(3-(4-amino-3-(6-phenoxypyridin-3-yl)-1H-pyrazolo[3,4-d]pyrimidin-1-yl)piperidin-1-yl) prop-2-en-1-one], the IC50 in assay [1] is 15.5 µM; in assay [2], 1.56 µM; in assay [3] it was 2.5 nM; in assay [4], above 1 µM; in assay [5], above 1 µM. In addition, in assay [1] (IC50 ratio to Compound II), the “hERG IC50 relative to Compound II” value turned out to be 2.98 times. The “hERG IC50 relative to ibrutinib” value in assay [1] (IC50 ratio to ibrutinib) came to 4.41 times.

Consider `C=CC(=O)N1CC[C@@H](n2nc(-c3ccc(Oc4ccccc4)nc3F)c3c(N)ncnc32)C1` [Compound 24a, (R)-1-(3-(4-amino-3-(2-fluoro-6-phenoxypyridin-3-yl)-1H-pyrazolo[3,4-d]pyrimidin-1-yl)pyrrolidin-1-yl)prop-2-en-1-one], for which the IC50 was 7.66 µM in assay [1]; 2.11 µM in assay [2]; 2.17 nM in assay [3]; above 1 µM in assay [4]; above 1 µM in assay [5].
